Measured values reported in US10800791B2, “Triazole ACC inhibitors and uses thereof” (Gilead Apollo, LLC, priority 2015, dated 2020).
≈ marks a conversion by molar mass, not a printed value. Like-named read-outs stand apart in the source and are kept apart here.

Key:
C. albicans = assay: Antifungal Activity Assay (broth microtiter MIC), C. albicans; assay type: cell-based, Candida albicans; conditions: Candida albicans, ATCC90028, 48 h
Outline: (§1)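 Susceptibility was determined by CLSI M27-A3 broth microdilution in RPMI 1640 buffered with MOPS. Growth inhibition was scored visually after 48 h.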

[1] = tested on: Phytophthora capsici (Pc); assay: Growth inhibition assay of fungal pathogens, Pc; assay type: cell-based; conditions: 48 h
Outline: (§2)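 Spores from sub-cultured plates were diluted in 17% V8 liquid medium and exposed to compound from DMSO stocks at final concentrations of 50, 10 and 2 ppm or 2, 0.4 and 0.08 ppm. OD600 and visual ratings at 48 h were compared with the 2% DMSO control to give percent growth inhibition.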

human (hACC2) = human (hACC2) (Homo sapiens, UniProt O00763); assay: In vitro ACC inhibition assay (ADP-Glo), hACC2; assay type: biochemical; conditions: 5 nM ACC2, 20 μM ATP, 20 μM acetyl-CoA
Sequence of human (hACC2) (O00763 whole entry): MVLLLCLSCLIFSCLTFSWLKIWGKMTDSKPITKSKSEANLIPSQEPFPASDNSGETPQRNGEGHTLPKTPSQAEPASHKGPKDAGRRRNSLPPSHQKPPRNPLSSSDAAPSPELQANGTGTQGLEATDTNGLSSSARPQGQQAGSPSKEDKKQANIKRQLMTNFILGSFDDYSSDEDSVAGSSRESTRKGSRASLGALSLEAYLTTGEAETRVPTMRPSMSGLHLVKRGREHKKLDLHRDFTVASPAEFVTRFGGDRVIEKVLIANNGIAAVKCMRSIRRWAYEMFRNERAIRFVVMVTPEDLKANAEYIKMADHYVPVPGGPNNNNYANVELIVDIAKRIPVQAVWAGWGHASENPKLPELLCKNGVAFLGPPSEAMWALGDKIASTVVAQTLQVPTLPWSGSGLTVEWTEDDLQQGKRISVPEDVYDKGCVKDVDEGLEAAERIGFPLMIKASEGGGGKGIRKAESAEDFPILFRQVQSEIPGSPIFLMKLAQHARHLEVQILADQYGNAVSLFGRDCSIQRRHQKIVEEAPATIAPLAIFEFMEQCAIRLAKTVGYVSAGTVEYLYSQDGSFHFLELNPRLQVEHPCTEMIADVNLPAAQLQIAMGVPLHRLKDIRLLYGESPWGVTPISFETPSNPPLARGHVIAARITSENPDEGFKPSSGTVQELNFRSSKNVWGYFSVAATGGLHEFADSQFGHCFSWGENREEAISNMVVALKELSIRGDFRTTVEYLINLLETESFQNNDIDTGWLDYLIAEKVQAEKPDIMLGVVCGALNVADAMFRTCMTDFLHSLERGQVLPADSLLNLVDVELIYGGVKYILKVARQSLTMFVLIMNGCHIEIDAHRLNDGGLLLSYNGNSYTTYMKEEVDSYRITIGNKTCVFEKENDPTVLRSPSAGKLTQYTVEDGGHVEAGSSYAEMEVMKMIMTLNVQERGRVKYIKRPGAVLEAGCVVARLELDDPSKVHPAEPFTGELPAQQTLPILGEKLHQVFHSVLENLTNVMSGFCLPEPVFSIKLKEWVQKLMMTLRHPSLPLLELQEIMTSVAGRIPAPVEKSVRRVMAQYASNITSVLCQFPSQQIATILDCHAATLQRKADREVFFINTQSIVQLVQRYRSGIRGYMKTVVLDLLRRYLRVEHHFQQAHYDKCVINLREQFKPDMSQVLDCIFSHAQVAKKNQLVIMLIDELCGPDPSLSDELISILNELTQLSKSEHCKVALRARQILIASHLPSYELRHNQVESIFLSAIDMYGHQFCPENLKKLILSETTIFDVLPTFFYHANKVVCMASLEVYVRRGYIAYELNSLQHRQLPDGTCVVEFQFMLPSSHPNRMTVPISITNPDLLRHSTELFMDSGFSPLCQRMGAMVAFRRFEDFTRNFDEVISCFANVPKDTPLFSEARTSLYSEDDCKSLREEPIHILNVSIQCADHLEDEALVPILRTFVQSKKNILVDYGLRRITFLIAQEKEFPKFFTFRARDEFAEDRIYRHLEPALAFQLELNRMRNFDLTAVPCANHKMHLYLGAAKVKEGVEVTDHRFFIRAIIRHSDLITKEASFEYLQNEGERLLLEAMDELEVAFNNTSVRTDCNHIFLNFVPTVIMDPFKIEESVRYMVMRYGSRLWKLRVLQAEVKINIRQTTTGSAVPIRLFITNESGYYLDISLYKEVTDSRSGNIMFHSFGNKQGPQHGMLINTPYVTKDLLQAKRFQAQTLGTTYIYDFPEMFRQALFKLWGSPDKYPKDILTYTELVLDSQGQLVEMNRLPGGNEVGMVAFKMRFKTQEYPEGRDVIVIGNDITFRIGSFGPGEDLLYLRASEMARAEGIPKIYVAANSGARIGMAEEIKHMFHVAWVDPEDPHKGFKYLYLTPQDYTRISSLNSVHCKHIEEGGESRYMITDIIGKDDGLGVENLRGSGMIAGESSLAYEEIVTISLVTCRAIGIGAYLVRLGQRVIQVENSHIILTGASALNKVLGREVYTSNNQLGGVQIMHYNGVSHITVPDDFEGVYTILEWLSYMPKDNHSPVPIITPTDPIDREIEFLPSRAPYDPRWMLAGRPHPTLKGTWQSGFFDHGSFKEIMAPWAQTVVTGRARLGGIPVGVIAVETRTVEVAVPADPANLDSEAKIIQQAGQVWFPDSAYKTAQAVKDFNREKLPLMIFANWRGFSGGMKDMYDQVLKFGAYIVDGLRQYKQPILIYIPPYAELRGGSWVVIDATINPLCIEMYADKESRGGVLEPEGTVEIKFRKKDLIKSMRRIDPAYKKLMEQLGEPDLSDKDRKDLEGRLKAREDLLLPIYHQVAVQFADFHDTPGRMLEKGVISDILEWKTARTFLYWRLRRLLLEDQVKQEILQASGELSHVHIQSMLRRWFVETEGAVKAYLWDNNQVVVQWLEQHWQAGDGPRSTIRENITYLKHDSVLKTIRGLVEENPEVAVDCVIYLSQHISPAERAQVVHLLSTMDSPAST
Procedure: The detailed procedure is as follows. […] 10 μL ADP glo reagent was added. […] 20 μL kinase detection reagent was added.

C. krusei = assay: Antifungal Activity Assay (broth microtiter MIC), C. krusei; assay type: cell-based, Candida krusei; conditions: Pichia kudriavzevii, ATCC6258, 48 h
Outline: as §1

Rhizoctonia solani (Rs) = assay: Growth inhibition assay of fungal pathogens, Rs; assay type: cell-based; conditions: 48 h
C. parapsilosis = assay: Antifungal Activity Assay (broth microtiter MIC), C. parapsilosis; assay type: cell-based, Candida parapsilosis; conditions: Lodderomyces parapsilosis, ATCC22019, 48 h
Outline: as §1

Diplodia maydis (Dm) = assay: Growth inhibition assay of fungal pathogens, Dm; assay type: cell-based; conditions: Stenocarpella maydis, 48 h, growth inhibition at 48 hours vs 2% DMSO control
Outline: as §2

[2] = tested on: Collectotrichum graminicola (Cg); assay: Growth inhibition assay of fungal pathogens, Cg; assay type: cell-based; conditions: 48 h, growth inhibition at 48 hours vs 2% DMSO control
Outline: as §2

Septoria tritici (St) = assay: Growth inhibition assay of fungal pathogens, St; assay type: cell-based; conditions: Zymoseptoria tritici, 48 h, growth inhibition at 48 hours vs 2% DMSO control
Outline: as §2

Botrtyis cinerea (Bc) = assay: Growth inhibition assay of fungal pathogens, Bc; assay type: cell-based; conditions: 48 h, growth inhibition at 48 hours vs 2% DMSO control
Outline: as §2

[3] = tested on: Fusarium virguliforme (Fv); assay: Growth inhibition assay of fungal pathogens, Fv; assay type: cell-based; conditions: 48 h
Outline: as §2

fungal (fACC2) = fungal (fACC2) (UniProt Q00955); conditions: read-out: fACC2 (in vitro ACC2 Inhibition Assay, IC50), ADP-Glo, 5 nM ACC2, 20 μM ATP, 20 μM acetyl-CoA
Sequence of fungal (fACC2) (Q00955 whole entry): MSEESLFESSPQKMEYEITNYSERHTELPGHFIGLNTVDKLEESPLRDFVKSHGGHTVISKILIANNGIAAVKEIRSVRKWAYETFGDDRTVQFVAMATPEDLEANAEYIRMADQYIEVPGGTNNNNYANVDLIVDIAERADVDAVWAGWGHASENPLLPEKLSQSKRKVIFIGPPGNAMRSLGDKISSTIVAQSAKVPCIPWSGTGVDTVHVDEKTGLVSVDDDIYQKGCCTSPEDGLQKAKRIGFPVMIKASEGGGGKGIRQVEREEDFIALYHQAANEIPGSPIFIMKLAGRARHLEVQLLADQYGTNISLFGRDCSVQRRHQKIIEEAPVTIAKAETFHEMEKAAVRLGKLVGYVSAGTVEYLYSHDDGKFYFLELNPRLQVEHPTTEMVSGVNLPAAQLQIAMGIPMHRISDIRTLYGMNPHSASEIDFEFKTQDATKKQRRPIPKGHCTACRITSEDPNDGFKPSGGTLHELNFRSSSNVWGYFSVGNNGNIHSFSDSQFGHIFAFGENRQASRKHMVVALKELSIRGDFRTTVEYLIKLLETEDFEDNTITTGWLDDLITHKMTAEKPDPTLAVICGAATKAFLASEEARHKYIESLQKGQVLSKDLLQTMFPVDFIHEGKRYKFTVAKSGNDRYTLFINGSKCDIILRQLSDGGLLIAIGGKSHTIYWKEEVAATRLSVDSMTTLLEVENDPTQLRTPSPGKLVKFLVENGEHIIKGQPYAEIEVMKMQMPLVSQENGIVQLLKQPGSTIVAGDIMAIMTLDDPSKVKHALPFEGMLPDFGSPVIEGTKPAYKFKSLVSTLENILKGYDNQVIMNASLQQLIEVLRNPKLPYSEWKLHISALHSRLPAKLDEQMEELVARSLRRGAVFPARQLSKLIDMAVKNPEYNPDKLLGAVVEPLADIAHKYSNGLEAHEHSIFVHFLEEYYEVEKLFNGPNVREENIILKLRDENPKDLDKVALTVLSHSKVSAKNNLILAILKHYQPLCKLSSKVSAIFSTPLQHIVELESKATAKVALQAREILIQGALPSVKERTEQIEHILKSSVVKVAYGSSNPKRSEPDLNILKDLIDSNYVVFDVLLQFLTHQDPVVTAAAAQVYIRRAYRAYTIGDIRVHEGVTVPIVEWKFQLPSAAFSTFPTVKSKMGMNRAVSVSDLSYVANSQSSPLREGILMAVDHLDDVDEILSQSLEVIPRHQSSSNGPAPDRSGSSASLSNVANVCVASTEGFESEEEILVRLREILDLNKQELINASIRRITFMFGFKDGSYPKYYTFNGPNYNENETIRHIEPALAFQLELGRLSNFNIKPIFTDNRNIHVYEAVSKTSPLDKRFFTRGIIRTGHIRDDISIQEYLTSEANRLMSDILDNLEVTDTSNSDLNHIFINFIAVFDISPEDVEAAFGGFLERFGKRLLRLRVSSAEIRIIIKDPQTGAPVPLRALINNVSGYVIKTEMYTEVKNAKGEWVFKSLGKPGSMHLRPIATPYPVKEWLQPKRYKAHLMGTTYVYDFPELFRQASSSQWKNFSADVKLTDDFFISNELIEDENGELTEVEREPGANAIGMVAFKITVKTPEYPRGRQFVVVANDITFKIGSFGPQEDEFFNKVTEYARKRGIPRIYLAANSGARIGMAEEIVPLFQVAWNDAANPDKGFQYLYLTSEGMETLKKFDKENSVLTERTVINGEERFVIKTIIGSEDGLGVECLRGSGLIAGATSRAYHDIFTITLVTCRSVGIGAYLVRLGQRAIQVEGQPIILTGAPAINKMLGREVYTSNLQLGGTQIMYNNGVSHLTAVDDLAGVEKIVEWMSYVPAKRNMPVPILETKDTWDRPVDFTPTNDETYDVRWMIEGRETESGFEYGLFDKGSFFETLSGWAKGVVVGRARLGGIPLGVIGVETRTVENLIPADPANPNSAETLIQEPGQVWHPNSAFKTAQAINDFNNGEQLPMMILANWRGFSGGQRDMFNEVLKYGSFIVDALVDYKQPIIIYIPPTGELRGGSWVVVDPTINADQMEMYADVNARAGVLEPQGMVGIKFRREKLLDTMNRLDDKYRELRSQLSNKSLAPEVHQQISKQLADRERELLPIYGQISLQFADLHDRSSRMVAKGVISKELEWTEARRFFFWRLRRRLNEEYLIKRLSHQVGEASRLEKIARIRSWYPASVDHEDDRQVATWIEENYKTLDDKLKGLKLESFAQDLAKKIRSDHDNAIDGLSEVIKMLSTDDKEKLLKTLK

[4] = tested on: Fusarium moniliforme (Fm); assay: Growth inhibition assay of fungal pathogens, Fm; assay type: cell-based; conditions: Fusarium verticillioides, 48 h, read-out: Concentration at 90% Inhibition Fm
Outline: as §2

[5] = read-out: MIC, C. albicans ATCC 90028, Table 3a, 3 replicates, MIC recorded at 48 h
[6] = read-out: MIC, C. albicans ATCC 90028, Table 3b (additional results), 3 replicates, MIC recorded at 48 h
[7] = read-out: Concentration at 90% Inhibition Pc, Phytophthora capsici, growth inhibition at 48 hours vs 2% DMSO control
[8] = read-out: MIC, C. krusei ATCC 6258, Table 3a, 3 replicates, MIC recorded at 48 h
[9] = read-out: MIC, C. krusei ATCC 6258, Table 3b (additional results), 3 replicates, MIC recorded at 48 h
[10] = read-out: Concentration at 90% Inhibition Rs, Rhizoctonia solani, mycelial plugs, growth inhibition at 48 hours vs 2% DMSO control
[11] = read-out: MIC, C. parapsilosis ATCC 22019, Table 3a, 3 replicates, MIC recorded at 48 h
[12] = read-out: MIC, C. parapsilosis ATCC 22019, Table 3b (additional results), 3 replicates, MIC recorded at 48 h
[13] = read-out: Concentration at 90% Inhibition Dm, Diplodia maydis
[14] = read-out: Concentration at 90% Inhibition Cg, Collectotrichum graminicola
[15] = read-out: Concentration at 90% Inhibition St, Septoria tritici
[16] = read-out: Concentration at 90% Inhibition Bc, Botrtyis cinerea
[17] = read-out: Concentration at 90% Inhibition Fv, Fusarium virguliforme, growth inhibition at 48 hours vs 2% DMSO control
[18] = Table 3a, ATCC 90028, 3 replicates, MIC recorded at 48 h, read-out: MIC, C. albicans ATCC 90028
[19] = Table 3b (additional results), ATCC 90028, 3 replicates, MIC recorded at 48 h, read-out: MIC, C. albicans ATCC 90028
[20] = growth inhibition at 48 hours vs 2% DMSO control, read-out: Concentration at 90% Inhibition Pc
[21] = Table 3a, ATCC 6258, 3 replicates, MIC recorded at 48 h, read-out: MIC, C. krusei ATCC 6258
[22] = Table 3b (additional results), ATCC 6258, 3 replicates, MIC recorded at 48 h, read-out: MIC, C. krusei ATCC 6258
[23] = mycelial plugs, growth inhibition at 48 hours vs 2% DMSO control, read-out: Concentration at 90% Inhibition Rs
[24] = Table 3a, ATCC 22019, 3 replicates, MIC recorded at 48 h, read-out: MIC, C. parapsilosis ATCC 22019
[25] = Table 3b (additional results), ATCC 22019, 3 replicates, MIC recorded at 48 h, read-out: MIC, C. parapsilosis ATCC 22019
[26] = Diplodia maydis, read-out: Concentration at 90% Inhibition Dm
[27] = Collectotrichum graminicola, read-out: Concentration at 90% Inhibition Cg
[28] = Septoria tritici, read-out: Concentration at 90% Inhibition St
[29] = Botrtyis cinerea, read-out: Concentration at 90% Inhibition Bc
[30] = growth inhibition at 48 hours vs 2% DMSO control, read-out: Concentration at 90% Inhibition Fv
[31] = Fusarium moniliforme, growth inhibition at 48 hours vs 2% DMSO control

SMILES	IC50 (human (hACC2); Table 2b, additional results)	IC50 (fungal (fACC2); Table 2a)	IC50 (fungal (fACC2); Table 2b, additional results)	MIC (C. albicans; [19])	IC90 [1, 20]	IC50 (human (hACC2); Table 2a)	MIC (C. krusei; [22])	IC90 (Rhizoctonia solani (Rs); [23])	MIC (C. parapsilosis; [25])	IC90 (Diplodia maydis (Dm); [26])	IC90 [2, 27]	IC90 (Septoria tritici (St); [28])	IC90 (Botrtyis cinerea (Bc); [29])	IC90 [3, 30]	IC90 [4, 31]	further results
COc1ccc(F)cc1[C@H](Cn1c(=O)n(C(C)(C)C(=O)NC(C)C)c(=O)c2c(C)c(-n3nccn3)sc21)OCC#N [Compound I-144]	5 to 10 nM	1 to 5 nM	1 to 5 nM													MIC (C. albicans; [5]): 0.25 to 1 µg/mL (≈ 0.428 to 1.71 µM); MIC (C. albicans; [6]): 1.01 to 2 µg/mL (≈ 1.73 to 3.43 µM); IC90 [1, 7]: > 50 µg/mL; MIC (C. krusei; [8]): 0.25 to 1 µg/mL (≈ 0.428 to 1.71 µM); MIC (C. krusei; [9]): 0.25 to 1 µg/mL (≈ 0.428 to 1.71 µM); IC90 (Rhizoctonia solani (Rs); [10]): 0.08 µg/mL (≈ 0.137 µM); MIC (C. parapsilosis; [11]): 0.25 to 1 µg/mL (≈ 0.428 to 1.71 µM); MIC (C. parapsilosis; [12]): 1.01 to 2 µg/mL (≈ 1.73 to 3.43 µM); IC90 (Diplodia maydis (Dm); [13]): 0.4 µg/mL (≈ 0.685 µM); IC90 [2, 14]: 0.4 µg/mL (≈ 0.685 µM); IC90 (Septoria tritici (St); [15]): > 50 µg/mL; IC90 (Botrtyis cinerea (Bc); [16]): 0.4 µg/mL (≈ 0.685 µM); IC90 [3, 17]: 0.4 µg/mL (≈ 0.685 µM); IC90 [4]: 2 µg/mL (≈ 3.43 µM)
COc1ccc(F)cc1[C@H](Cn1c(=O)n(C(C)(C)C(=O)NC(C)C)c(=O)c2c(C)c(-n3nccn3)sc21)OC[C@@H](C)C#N [Compound I-150]	1 to 5 nM	0.4 to 1 nM	0.3 to 1 nM	0.25 to 1 µg/mL (≈ 0.409 to 1.63 µM)	> 50 µg/mL	1 to 5 nM	0.25 to 1 µg/mL (≈ 0.409 to 1.63 µM)	0.08 µg/mL (≈ 0.131 µM)	0.25 to 1 µg/mL (≈ 0.409 to 1.63 µM)	0.08 µg/mL (≈ 0.131 µM)	0.08 µg/mL (≈ 0.131 µM)	> 50 µg/mL	0.4 µg/mL (≈ 0.654 µM)	0.4 µg/mL (≈ 0.654 µM)	0.08 µg/mL (≈ 0.131 µM)	MIC (C. albicans; [18]): 0.25 to 1 µg/mL (≈ 0.409 to 1.63 µM); MIC (C. krusei; [21]): 0.25 to 1 µg/mL (≈ 0.409 to 1.63 µM); MIC (C. parapsilosis; [24]): 0.25 to 1 µg/mL (≈ 0.409 to 1.63 µM)
COc1ccc(F)cc1[C@H](Cn1c(=O)n(C(C)(C)C(=O)NC(C)C)c(=O)c2c(C)c(-n3nccn3)sc21)OC[C@H](C)C#N [Compound I-151]	1 to 5 nM	0.4 to 1 nM	0.3 to 1 nM	0.25 to 1 µg/mL (≈ 0.409 to 1.63 µM)	> 50 µg/mL	5 to 10 nM	0.25 to 1 µg/mL (≈ 0.409 to 1.63 µM)	0.08 µg/mL (≈ 0.131 µM)	0.25 to 1 µg/mL (≈ 0.409 to 1.63 µM)	0.08 µg/mL (≈ 0.131 µM)	0.08 µg/mL (≈ 0.131 µM)	> 50 µg/mL	0.4 µg/mL (≈ 0.654 µM)	0.4 µg/mL (≈ 0.654 µM)	0.08 µg/mL (≈ 0.131 µM)	MIC (C. albicans; [18]): 0.25 to 1 µg/mL (≈ 0.409 to 1.63 µM); MIC (C. krusei; [21]): 0.25 to 1 µg/mL (≈ 0.409 to 1.63 µM); MIC (C. parapsilosis; [24]): 0.25 to 1 µg/mL (≈ 0.409 to 1.63 µM)
COc1ccc(F)cc1[C@H](Cn1c(=O)n(C(C)(C)C(=O)NC(C)C)c(=O)c2c(C)c(-n3nccn3)sc21)OCC(C)(C)C#N [Compound I-154]	5 to 10 nM	1 to 5 nM	1 to 5 nM			5 to 10 nM										MIC (C. albicans; [5]): 0.25 to 1 µg/mL (≈ 0.4 to 1.6 µM); MIC (C. albicans; [6]): 0.25 to 1 µg/mL (≈ 0.4 to 1.6 µM); IC90 [1, 7]: > 50 µg/mL; MIC (C. krusei; [8]): 0.25 to 1 µg/mL (≈ 0.4 to 1.6 µM); MIC (C. krusei; [9]): 0.25 to 1 µg/mL (≈ 0.4 to 1.6 µM); IC90 (Rhizoctonia solani (Rs); [10]): 0.08 µg/mL (≈ 0.128 µM); MIC (C. parapsilosis; [11]): 0.25 to 1 µg/mL (≈ 0.4 to 1.6 µM); MIC (C. parapsilosis; [12]): 1.01 to 2 µg/mL (≈ 1.61 to 3.2 µM); IC90 (Diplodia maydis (Dm); [13]): 0.08 µg/mL (≈ 0.128 µM); IC90 [2, 14]: 0.4 µg/mL (≈ 0.639 µM); IC90 (Septoria tritici (St); [15]): > 50 µg/mL; IC90 (Botrtyis cinerea (Bc); [16]): 0.4 µg/mL (≈ 0.639 µM); IC90 [3, 17]: 0.4 µg/mL (≈ 0.639 µM); IC90 [4]: 0.08 µg/mL (≈ 0.128 µM)
COc1ccc(F)cc1[C@H](Cn1c(=O)n([C@H](C)C(=O)N2CCCC2)c(=O)c2c(C)c(-n3nccn3)sc21)OCCC#N [Compound I-187]	1 to 5 nM		1 to 5 nM	2.01 to 4 µg/mL (≈ 3.37 to 6.72 µM)	> 50 µg/mL		2.01 to 4 µg/mL (≈ 3.37 to 6.72 µM)	0.4 µg/mL (≈ 0.672 µM)	1.01 to 2 µg/mL (≈ 1.7 to 3.36 µM)	2 µg/mL (≈ 3.36 µM)	2 µg/mL (≈ 3.36 µM)	> 50 µg/mL	0.4 µg/mL (≈ 0.672 µM)	0.4 µg/mL (≈ 0.672 µM)	0.08 µg/mL (≈ 0.134 µM)	
COc1ccc(F)cc1[C@H](Cn1c(=O)n([C@@H](C)C(=O)N(C)C(C)C)c(=O)c2c(C)c(-n3nccn3)sc21)OCCC#N [Compound I-188]	5 to 10 nM		0.3 to 1 nM	2.01 to 4 µg/mL (≈ 3.36 to 6.69 µM)	> 50 µg/mL		2.01 to 4 µg/mL (≈ 3.36 to 6.69 µM)	2 µg/mL (≈ 3.35 µM)	2.01 to 4 µg/mL (≈ 3.36 to 6.69 µM)	2 µg/mL (≈ 3.35 µM)	10 µg/mL (≈ 16.7 µM)	> 50 µg/mL	2 µg/mL (≈ 3.35 µM)	2 µg/mL (≈ 3.35 µM)	0.4 µg/mL (≈ 0.669 µM)	
COc1ccc(F)cc1[C@@H](O)Cn1c(=O)n(C(C)(C)C(N)=O)c(=O)c2c(C)c(-n3nccn3)sc21 [Compound I-194]	5 to 10 nM		1 to 5 nM	2.01 to 4 µg/mL (≈ 4 to 7.96 µM)	> 50 µg/mL		2.01 to 4 µg/mL (≈ 4 to 7.96 µM)	> 50 µg/mL	> 4.01 µg/mL	> 50 µg/mL	> 50 µg/mL	> 50 µg/mL	10 µg/mL (≈ 19.9 µM)	> 50 µg/mL	10 µg/mL (≈ 19.9 µM)	
